Assay results: PubChem BioAssay (NCI)
“And” between values parts separate entries of the source, which are not always exact repeats. Identical values can stand only once.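 A five-concentration, 48-hour dose response in 96-well plates underlies each endpoint, interpolated linearly between surrounding concentrations. The concentration for 50% growth inhibition is given as GI50. At the TGI there is no net growth.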

Legend:
Assay in all cases: growth of human tumour cells (NCI), 48 h
[1] = tested on: OVCAR-4 ovarian
[2] = tested on: HOP-92 NSCLC
[3] = tested on: NCI/ADR-RES ovarian
[4] = tested on: HS 578T breast
[5] = tested on: COLO 205 colon
[6] = tested on: NCI-H226 lung
[7] = tested on: HL-60(TB) leukemia
[8] = tested on: SK-MEL-2 melanoma
[9] = tested on: SNB-78 CNS

Compound | GI50 [1] | TGI [1] | GI50 [2] | TGI [2] | GI50 [3] | TGI [3] | GI50 [4] | TGI [4] | GI50 [5] | TGI [5] | GI50 [6] | TGI [6] | GI50 [7] | TGI [7] | GI50 [8] | TGI [8] | TGI [9] [µM]
COc1ccc2c(c1)C(=O)/C(=C/c1cccc(OCC(=O)c3ccc([N+](=O)[O-])cc3)c1)CO2 | 4.36 µM | 17.2 µM | 3.16 µM | 15.8 µM | 2.03 µM | 5.02 µM | 2.73 µM | 12.2 µM | 2.74 µM | 6.33 µM | 7.06 µM | 23.3 µM | 2.34 µM | 12.8 µM | 1.64 µM | 4.2 µM | –
N#Cc1ccc(O)c(C2=NCC(c3ccc(-c4ccccc4)cc3)O2)c1 (stereo not given) | 0.32 µM | 10.1 µM | 0.421 µM | 22.5 µM | 0.148 µM | 5.7 µM | 0.867 µM | 31.9 µM | 0.349 µM | 14.8 µM | 0.589 µM | 12.7 µM | 0.416 µM | 3.73 µM | 0.746 µM | 15.8 µM | –
Cl.[O-]c1cccc2cccnc12.[O-]c1cccc2cccnc12.[O-]c1cccc2cccnc12.[O-]c1cccc2cccnc12.[Ti+4] | 0.959 µM | – | 15.7 µM | > 71.7 µM | 0.243 µM | 11.5 µM | > 100 µM | > 100 µM | 1.08 µM | 3.55 µM | 7.9 µM | > 89.9 µM | 0.226 µM | – | 3.32 µM | 26.1 µM | –
N#Cc1ccc(C(=O)c2cnn(-c3ccc(F)cc3)c2N)cc1 | > 25 µM | > 25 µM | > 25 µM | > 25 µM | > 25 µM | > 25 µM | > 25 µM | > 25 µM | > 25 µM | > 25 µM | > 25 µM | > 25 µM | > 25 µM | > 25 µM | > 25 µM | > 25 µM | –
CC(=O)OCC1OC([S-])C(OC(C)=O)C(OC(C)=O)C1OC(C)=O.[Au+].c1ccc(CN2[CH-]N(Cc3ccccc3)C(c3ccccc3)=C2c2ccccc2)cc1 | 3.54 µM and 0.688 µM | 15.3 µM and 5.82 µM | – | 3.93 µM and 0.437 µM | 6.35 µM and 1.68 µM | 21.8 µM and 9.04 µM | 2.62 µM and 0.396 µM | 8.56 µM and 7.74 µM | 3.59 µM and 0.881 µM | 14.3 µM and 2.27 µM | 3.5 µM and 0.655 µM | 14.3 µM and 5.74 µM | 2.57 µM and 0.573 µM | 7.57 µM and 2.35 µM | 2.77 µM and 0.656 µM | 8.11 µM and 2.2 µM | –
O=C1/C=C/[C@@H](O)[C@@H]2C[C@@H](O)C[C@H]2/C=C/CCC[C@H](CCc2ccc(NC(=S)Nc3ccc4c(c3)C(=O)OC43c4ccc(O)cc4Oc4cc(O)ccc43)cc2)O1 | 0.333 µM | – | 0.932 µM | > 27.6 µM | 0.407 µM | > 100 µM | 0.305 µM | > 100 µM | 0.208 µM | 0.384 µM | 0.287 µM | 0.783 µM | 4.51 µM | > 100 µM | 0.456 µM | 5.22 µM | –
COc1ccc(-c2nsc3c2NC(=O)CC3c2cccc(F)c2)cc1 (stereo not given) | 50.2 µM | > 100 µM | 3.57 µM | 40.6 µM | 2.96 µM | 16.7 µM | 3.95 µM | > 100 µM | 2.95 µM | > 100 µM | 6.74 µM | > 100 µM | 4.21 µM | > 100 µM | 3.3 µM | 9.19 µM | –
CCCCCCCCC1C(C)c2c([nH]c3ccccc23)C2C(=O)N(c3ccccc3)C(=O)C21 (stereo not given) | – | 15.8 µM | – | – | – | – | – | – | – | – | – | 25.9 µM | – | 13.9 µM | – | 33.3 µM | 29.8
CC[C@H](C)C(=O)O[C@H]1CCC=C2C=C[C@H](C)[C@H](CC[C@@H]3C[C@@H](O)CC(=O)O3)[C@H]21 | 19.8 µM | > 100 µM | 0.135 µM | 0.706 µM | 3.34 µM | > 100 µM | 4.56 µM | > 100 µM | – | 82 µM | 6.82 µM | > 82.2 µM | 17.1 µM | 76.5 µM | 1.77 µM | 11.7 µM | –
Fc1ccc(-c2c(-c3ccncc3)[nH]c3cccnc23)cc1 | > 25 µM | > 25 µM | 22.3 µM | > 25 µM | > 25 µM | > 25 µM | > 25 µM | > 25 µM | 18.6 µM | > 25 µM | > 15.2 µM | > 25 µM | > 25 µM | > 25 µM | > 25 µM | > 25 µM | –
Cc1c(C(=O)/C=C/c2ccc(Cl)cc2)nnn1-c1ccnc2c(C(F)(F)F)cccc12 | 0.151 µM | 0.966 µM | 18.4 µM | 60.6 µM | 48.4 µM | > 100 µM | 64.3 µM | > 100 µM | > 100 µM | > 100 µM | 22.6 µM | > 100 µM | 25.9 µM | > 100 µM | > 100 µM | > 100 µM | –
COc1ccc(C2CC(c3ccc4ccccc4c3)=NN2c2nc(O)c(C3=c4cc(Cl)ccc4=NC3=O)s2)cc1 (stereo not given) | 0.0215 µM | 0.0487 µM | 0.0168 µM and < 0.005 µM | – | 0.0923 µM | 50 µM | 0.0283 µM | 0.0973 µM | 0.0221 µM | 0.0503 µM | 0.0208 µM | 0.052 µM | 0.171 µM | – | 0.0263 µM and < 0.005 µM | – | –
O=c1[nH][nH]c(=O)c2c(O)c(-c3ccccc3)ncc12 | 46 µM and 110 µM | 630 µM | 30.4 µM and 50.1 µM | 91.2 µM and 277 µM | 36.7 µM and 73.2 µM | 586 µM | 40.3 µM and 40.2 µM | 672 µM | 41.6 µM and 130 µM | 399 µM | 25.2 µM and 135 µM | 52.6 µM and 463 µM | 74.4 µM and 174 µM | 553 µM | 26 µM and 79.1 µM | 67.3 µM and 373 µM | –
CC[C@H](C)[C@H](NC(=O)[C@H]1CCCCN1C)C(=O)N(C)[C@H](C[C@@H](OC(C)=O)c1nc(C(=O)NC23C4C5C2C2C3C4C52C(=O)OC)cs1)C(C)C (stereo not given in full) | 0.0506 µM | > 25 µM | 5.44 µM | > 25 µM | 0.0676 µM | – | 0.000754 µM and 0.0025 µM | > 25 µM | 0.00303 µM and 0.0025 µM | 0.0715 µM and 0.0111 µM | 0.0256 µM and 0.0222 µM | 1.15 µM | 0.000317 µM and < 0.0025 µM | 0.00196 µM and < 0.0025 µM | 0.00185 µM and 0.0025 µM | 0.00452 µM | –
CN(C)c1ccc(/C=N/n2c(CCCCc3n[nH]c(=S)n3/N=C/c3ccc(N(C)C)cc3)n[nH]c2=S)cc1 | > 100 µM | > 100 µM | > 100 µM | > 100 µM | > 100 µM | > 100 µM | 73.8 µM | > 100 µM | > 100 µM | > 100 µM | > 100 µM | > 100 µM | > 100 µM | > 100 µM | > 100 µM | > 100 µM | –
